Two substances from patent US20170114329A1, “SCALABLE ORGANOTYPIC MODELS OF TUMOR DORMANCY” (THE REGENTS OF THE UNIVERSITY OF CALIFORNIA, priority 2013, published 2017) can be followed below.

What all share (type): cell-based, human
In data set [1] the test system is E4-EC microvascular networks. In words: Neovascular tip number in microvascular niche cultures. The following applies: shNotch1 E4-EC vs shCtrl, day 7. On the procedure: (§1) Microvascular niche cultures were generated with modifications to a previously described protocol, described in Evensen, L., et al. Mural cell associated VEGF is required for organotypic vessel formation. PLoS One 4, e5798 (2009), hereby incorporated by reference in its entirety. LFs or MSCs were seeded alone at a density of 5×10^4 cells/well in 96-well culture plates or with mCherry-E4-ECs at a 5:1 ratio to generate lung-like or BoMa-like microvascular niches, respectively. Cells were suspended in EGM-2 at a concentration 5×10^4 cells/100 μl (stroma only) or 6×10^4 cells/100 μl (stroma+ECs). After depositing 100 μl of cellular suspension per well of a 96-well plate, plates were left undisturbed on a flat surface for 20 min to allow even cell seeding prior to incubation.
Network properties were counted manually using the “cell counter” application in ImageJ.
E4ORF1-HUVECs were infected at 5 MOI with custom-made lentiviruses (Sigma) containing shRNA targeting human Notch1 in a pLKO.1-puro-CMV-TagRFP vector. Empty vector was used as a control (shCtrl).

The subject of the next data set is Notch1. The experiment in a line: Notch1 knockdown in E4ORF1-HUVEC, immunoblot. The following applies: normalized to Lamin A/C. The source says: E4ORF1-HUVECs were infected at 5 MOI with custom-made lentiviruses (Sigma) containing shRNA targeting human Notch1 in a pLKO.1-puro-CMV-TagRFP vector. Empty vector was used as a control (shCtrl). Sequences for shRNA were as follows:
shNotch1-E4-ECs and shCtrl-E4-ECs were lysed in 2% SDS/PBS. Twenty μg of each lysate was then separated on a Tris-Glycine 4-20% gel. Notch1 was probed with a rabbit polyclonal antibody (AbCam ab27526, 1:500). The blot was stripped and re-probed with a rabbit polyclonal antibody to the nuclear membrane protein Lamin A/C, used here as a loading control (Santa Cruz Biotechnology sc-20681, 1:2000).
(In western blotting, separated proteins are transferred to a membrane and probed.)

Another data set relates to T4-2 cells. The experiment in a line: Growth of YFP T4-2 breast cancer cells on lung stroma (LF) cultures. The following applies: add-back to T4-2 cells plated on lung stroma without ECs; normalized to vehicle condition. On the procedure: as §1
After 7 days, YFP tumor cells were suspended in unsupplemented DMEM/F12 (800 cells/ml). YFP tumor cells were seeded (100 μl/well) after washing cultures thrice with PBS. […]
A macro was written using NIH ImageJ open source software to remove bias from data quantification. […] The total area fraction of the 6×6 tiled image occupied by YFP cells was then calculated. […] For each image, the measured area fraction at day 10 was normalized by the corresponding day 0 value in order to account for any small variations in seeding density from well-to-well.

“Also recorded” adds a separate entry of the source.

Take “sh8393: shRNA targeting human Notch1, SEQ ID NO: 1, in pLKO.1-puro-CMV-TagRFP lentiviral vector (CCGGCTTTGTTTCAGGTTCAGTATTCTCGAGAATACTGAACCTGAAACAAAGTTTTT)”: in data set [1], the “number of endothelial tips” value is “significant reduction in the number of endothelial tips”. Besides, the “endothelial cell Notch1 expression at the protein level” value in the data set on Notch1 is “significantly reduced endothelial cell Notch1 expression”. For thrombospondin-1 [TSP-1], the “tumor cell growth (normalized tumor cell area fraction)” value with T4-2 cells is “significant reduction in tumor cell growth; also recorded: sufficient to suppress BCC growth on lung stroma”.
